Measured values: ChEMBL document CHEMBL5661976 (Cancer Res, 2007)
The source made the active and inactive calls. No cut-off for these calls is given here.

What was measured:
[1] = target: Receptor tyrosine-protein kinase erbB-2 (Mus musculus, UniProt P70424); test: Inhibition of ERBB2 expressed in mouse NIH3T3 cells; assay type: cell-based
[2] = target: Receptor tyrosine-protein kinase erbB-3 (Homo sapiens) (UniProt P21860); test: Inhibition of ERBB3 phosphorylation in human HCC827 cells expressing GFP at 1 to 10000 nmol/L incubated for 12 hrs by Western blotting analysis; assay type: cell-based; conditions: dose 1-10000 nmol/L
NCI-H3255 = test: Induction of apoptosis in human NCI-H3255 cells assessed as increase in cleavage of PARP at 1 micromol/L incubated for 72 hrs by Western blotting analysis; assay type: functional, cell-based; conditions: dose 1.0 µmol/L

Chain of Receptor tyrosine-protein kinase erbB-2 (P70424 whole entry): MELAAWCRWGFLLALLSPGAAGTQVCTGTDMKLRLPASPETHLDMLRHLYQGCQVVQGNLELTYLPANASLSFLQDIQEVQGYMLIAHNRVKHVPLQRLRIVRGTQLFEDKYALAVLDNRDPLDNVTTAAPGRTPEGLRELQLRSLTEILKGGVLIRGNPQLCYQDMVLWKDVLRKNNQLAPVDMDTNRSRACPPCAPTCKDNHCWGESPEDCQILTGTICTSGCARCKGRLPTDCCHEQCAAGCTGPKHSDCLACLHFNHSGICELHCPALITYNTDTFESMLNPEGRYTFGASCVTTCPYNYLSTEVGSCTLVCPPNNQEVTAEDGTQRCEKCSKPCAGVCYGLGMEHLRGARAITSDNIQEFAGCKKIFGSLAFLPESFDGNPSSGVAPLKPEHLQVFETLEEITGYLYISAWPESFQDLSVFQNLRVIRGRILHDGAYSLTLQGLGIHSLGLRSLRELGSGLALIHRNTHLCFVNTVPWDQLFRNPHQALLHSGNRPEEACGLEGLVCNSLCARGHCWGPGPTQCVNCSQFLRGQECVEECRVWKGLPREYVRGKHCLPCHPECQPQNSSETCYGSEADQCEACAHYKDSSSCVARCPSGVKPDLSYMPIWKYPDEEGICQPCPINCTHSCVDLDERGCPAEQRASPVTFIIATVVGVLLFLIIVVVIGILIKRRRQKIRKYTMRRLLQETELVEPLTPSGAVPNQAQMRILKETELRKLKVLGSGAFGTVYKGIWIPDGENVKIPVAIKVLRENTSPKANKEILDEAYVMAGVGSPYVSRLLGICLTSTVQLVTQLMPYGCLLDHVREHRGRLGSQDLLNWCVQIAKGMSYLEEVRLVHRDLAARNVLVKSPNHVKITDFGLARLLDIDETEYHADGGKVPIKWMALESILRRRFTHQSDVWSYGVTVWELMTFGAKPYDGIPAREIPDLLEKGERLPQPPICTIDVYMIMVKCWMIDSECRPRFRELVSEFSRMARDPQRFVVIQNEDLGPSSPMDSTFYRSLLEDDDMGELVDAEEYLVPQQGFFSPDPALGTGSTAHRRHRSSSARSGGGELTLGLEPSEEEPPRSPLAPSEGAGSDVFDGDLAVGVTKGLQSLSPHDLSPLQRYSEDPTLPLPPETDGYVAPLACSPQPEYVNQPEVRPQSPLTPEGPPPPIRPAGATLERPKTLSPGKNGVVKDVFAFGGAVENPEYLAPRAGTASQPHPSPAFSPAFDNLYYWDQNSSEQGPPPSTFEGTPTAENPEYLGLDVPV
Chain of Receptor tyrosine-protein kinase erbB-3 (Homo sapiens) (P21860 whole entry): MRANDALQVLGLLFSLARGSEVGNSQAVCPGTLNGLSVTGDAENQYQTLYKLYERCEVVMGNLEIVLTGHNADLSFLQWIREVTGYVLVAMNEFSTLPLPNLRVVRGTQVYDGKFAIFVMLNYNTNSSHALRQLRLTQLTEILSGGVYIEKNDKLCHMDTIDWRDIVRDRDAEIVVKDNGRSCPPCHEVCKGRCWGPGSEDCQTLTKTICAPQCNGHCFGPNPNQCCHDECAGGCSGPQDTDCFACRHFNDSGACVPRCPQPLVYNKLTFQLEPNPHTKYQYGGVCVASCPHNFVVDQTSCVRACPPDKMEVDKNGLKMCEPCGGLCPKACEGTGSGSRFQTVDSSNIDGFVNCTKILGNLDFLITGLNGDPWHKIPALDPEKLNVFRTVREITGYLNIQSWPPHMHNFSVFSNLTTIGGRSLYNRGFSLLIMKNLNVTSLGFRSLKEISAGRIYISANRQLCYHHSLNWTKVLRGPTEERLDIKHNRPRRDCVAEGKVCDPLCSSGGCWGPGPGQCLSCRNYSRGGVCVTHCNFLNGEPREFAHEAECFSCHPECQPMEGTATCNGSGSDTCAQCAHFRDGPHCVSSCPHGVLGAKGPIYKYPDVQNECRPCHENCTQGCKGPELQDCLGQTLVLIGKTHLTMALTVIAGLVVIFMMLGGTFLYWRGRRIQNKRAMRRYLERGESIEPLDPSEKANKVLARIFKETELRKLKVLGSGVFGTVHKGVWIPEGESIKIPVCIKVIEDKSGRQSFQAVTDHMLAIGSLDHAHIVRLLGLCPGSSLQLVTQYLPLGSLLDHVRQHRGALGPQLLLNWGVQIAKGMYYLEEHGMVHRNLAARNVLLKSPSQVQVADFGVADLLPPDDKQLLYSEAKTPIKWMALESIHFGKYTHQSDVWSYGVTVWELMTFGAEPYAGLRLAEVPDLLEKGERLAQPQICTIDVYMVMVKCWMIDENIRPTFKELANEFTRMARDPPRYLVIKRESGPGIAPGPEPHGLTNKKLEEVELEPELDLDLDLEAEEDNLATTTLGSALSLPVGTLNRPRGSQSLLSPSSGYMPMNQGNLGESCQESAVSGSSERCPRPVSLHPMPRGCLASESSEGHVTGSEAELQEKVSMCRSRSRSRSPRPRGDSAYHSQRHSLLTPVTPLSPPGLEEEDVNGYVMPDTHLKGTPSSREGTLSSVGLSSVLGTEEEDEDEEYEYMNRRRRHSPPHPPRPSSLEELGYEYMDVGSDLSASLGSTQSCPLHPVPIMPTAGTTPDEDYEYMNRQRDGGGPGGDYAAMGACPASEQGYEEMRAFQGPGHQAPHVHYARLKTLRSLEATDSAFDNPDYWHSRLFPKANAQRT

Row | Compound | IC50 [1] | inhibition [2] | Activity (NCI-H3255)
1 | C#Cc1cccc(Nc2ncnc3cc(OCCOC)c(OCCOC)cc23)c1 [ERLOTINIB] | 299 nM |  | 
2 | COc1cc2ncnc(Nc3ccc(F)c(Cl)c3)c2cc1OCCCN1CCOCC1 [GEFITINIB] | > 500 nM | Active | Active
